This note sets out measurements from PubChem BioAssay (NCI).

Holding throughout (assay): growth of human tumour cells (NCI), 48 h
In test [1] the test system is BT-549 breast.
The test system of test [2] is COLO 205 colon.
In test [3] the test system is HCT-15 colon.
Test [4] has as its system MCF7 breast.
Test [5] relates to PC-3 prostate.
The subject of test [6] is SK-MEL-5 melanoma.
In test [7] the test system is T-47D breast.
For test [8], the system named is NCI-H522 lung.
The subject of test [9] is RPMI-8226 leukemia.
Test [10] relates to RXF 393 renal.
Test [11] relates to SF-268 CNS.

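Step 1: Grow cells in 96-well plates. Step 2: Expose to compound for 48 hours at 5 concentrations. Step 3: Interpolate endpoints linearly; if unreached, use highest concentration. Abbreviation: GI50, concentration required for 50% inhibition of growth. TGI: total growth inhibition.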

As for `CCCCCCCCCCCCCCCCCCNC(=S)/N=C/c1c(O)cc(C)oc1=O`, the TGI in test [1] was 40.6 µM; in test [2], over 100 µM; in test [3], 62 µM; in [4], over 100 µM; in [5] it was 69.8 µM; in test [6], over 100 µM. Moreover, in test [7], the TGI was over 100 µM.
Take `O=S(=O)(Nc1nc(-c2cc(O)c(O)c(O)c2)cs1)c1ccc(Cl)cc1Cl`: the TGI is 50.2 µM in [2]; 33 µM in test [3]; 36.1 µM in test [4]; 34.5 µM in test [8]; over 100 µM in [5]; 40.8 µM in [9]. The TGI in test [10] amounted to 71.4 µM; in [11], 46.2 µM; in test [6] it was 34.2 µM; in test [7], 41.1 µM.
Turning to `O=C(O)C1(CC(CCCN2CCCCC2)c2ccccc2)CCCC1` (configuration not stated), the TGI in [2], in [3], in test [4], in [8], in test [5] and in test [9] was over 100 µM each time. Moreover, the TGI in test [10], in test [11], in [6] and in test [7] was over 100 µM in each case.
Turning to `CCN(CC)CCNC(=O)c1cc2cc(NC(=O)c3cc4cc(NC(=O)c5cc6cc([N+](=O)[O-])ccc6[nH]5)ccc4[nH]3)ccc2[nH]1`, the TGI in test [1], in test [2], in test [3], in test [8], in [5] and in test [9] was over 100 µM each time. In addition, the TGI in test [10], in test [11], in test [6] and in [7] was over 100 µM throughout.
For the molecule `Cc1ccc(-c2nc3n(c2/C=N\N=C(N)N)CCS3)cc1`, the TGI came out at 27.7 µM in test [2]; 31.8 µM in [3]; 18.1 µM in test [8]; 28.5 µM in [5]; 68.8 µM in [9]; 29.6 µM in test [10]. Besides, the TGI in test [11] was 29.3 µM; in [6], 27.2 µM; in test [7], 29 µM.
For the molecule `C[n+]1c(-c2ccc(/C=N/Nc3n[nH]c(=S)n3N/N=C/c3ccc(-c4cn5ccccc5[n+]4C)cc3)cc2)cn2ccccc21`, the TGI in [2], in test [3], in test [4], in test [8], in [5] and in test [9] was over 100 µM each time. The TGI in [11], in test [6] and in [7] was over 100 µM each time.
For the molecule `O=C(/C=C\c1ccc(OCCCCCC[P+](c2ccccc2)(c2ccccc2)c2ccccc2)cc1)c1ccc2c(c1)OCCO2`, the GI50 in [8] was 885 nM; in [9], 296 nM; in test [11] it was 585 nM. Besides, the TGI in [8] amounted to 4.42 µM; in test [9], 1.3 µM; in test [11] it was 3.19 µM.
As for `COc1cc(OC)c(NC2=NCCO2)cc1Cl`, the TGI in test [2] is 38.2 µM; in [3], over 100 µM; in test [4], over 100 µM; in test [8], over 100 µM; in test [5], 71.8 µM; in test [9], over 100 µM. Moreover, the TGI in [10] was over 100 µM; in test [11], over 100 µM; in test [6], 47.3 µM; in test [7], over 100 µM.
With `Cc1ccc(N2C(=O)C(O)=C(C(=O)C(C)(C)C)C2c2ccc([N+](=O)[O-])cc2)cc1` (configuration not stated), the TGI was 39 µM in test [1]; 32.3 µM in test [2]; 47.4 µM in test [3]; 37.6 µM in test [4]; over 100 µM in test [5]; 49.4 µM in test [9]. For the same molecule, the TGI in test [11] was determined as 47.8 µM; in test [6], 30 µM; in test [7], 52.5 µM.
As for `CN(c1ccccc1Cl)S(=O)(=O)c1ccccc1`, the TGI in [1], in test [2], in [3], in test [4], in [8] and in test [5] was over 100 µM throughout. The TGI in test [9], in test [11] and in [6] was over 100 µM throughout.
Consider `N#CCCCCC12C3C(=O)N(c4ccccc4)C(=O)C3ON1O[C@@H]1C(=O)N(c3ccccc3)C(=O)[C@@H]12` (some centres not stated), for which the TGI in [1], in [2], in test [3], in [4], in test [8] and in [5] was over 100 µM throughout. For the same molecule, the TGI in [11], in test [6] and in test [7] was over 100 µM throughout.
As for `Cc1cc(O)c(/C=N/C(=O)NN)c(=O)o1`, the TGI in test [1], in test [2], in test [3], in test [4], in test [8] and in test [5] was over 100 µM each time. The TGI in [10], in test [11] and in test [6] was over 100 µM in each case.
With `O=C(O)C1C2CCC(C2)C1c1ccccc1` (configuration not stated), the TGI in test [2], in [3], in [4], in test [8], in test [5] and in [9] was over 100 µM throughout. Besides, the TGI in test [10], in test [11], in test [6] and in test [7] was over 100 µM in each case.
With `CC[C@@]1(O)C(=O)OCc2c1cc1n(c2=O)Cc2c-1nc1ccccc1c2/C=N\NC(=O)C(N)=O`, the TGI in test [1] is over 90.9 µM; in [2], over 100 µM; in test [3], over 100 µM; in test [4], over 45.4 µM; in [8], 46.5 µM; in test [5], over 100 µM. Also, the TGI was over 100 µM in test [9], 37.5 µM in [10], over 100 µM in [11] and 2.96 µM in [6].
